# Target: Recombinant human GR (Homo sapiens (Human), UniProt P04150)
# Test: GR binding activity evaluation test (GR competitive binding assay, fluorescence polarization)
# Conditions: 20 μM test compound solution, 10 μL/well; 2 mM DEX as positive control; 2 hours at room temperature
# Method: In order to evaluate a binding activity of the present compound to GR, a GR receptor competitor assay was carried out by a fluorescence polarization method. In the assay, a GR competitive binding assay kit (manufactured by Invitrogen, cat No. P2816) was used for the assay, and a procedure was carried out according to the protocol attached to the kit. Hereinafter, the specific method will be described.
# GR screening buffer: A buffer containing 10 mM of potassium phosphate (pH 7.4), 20 mM of sodium molybdate (Na2MoO4), 0.1 mM of ethylene diamine tetraacetic acid (EDTA), 5 mM of dithiothreitol (DTT), 0.1 mM of stabilizing peptide and 2% of dimethylsulfoxide was prepared.
# 4×GS1 solution: Fluormone™ GS1, which is a fluorescent glucocorticoid ligand, was diluted with GR screening buffer, whereby a 4 nM solution was prepared. […]
# 5) The plate was incubated in a dark place at room temperature for 2 hours, and fluorescence polarization of each well was measured.
# A GR binding ratio (%) was calculated from the following equation. GR binding ratio (%)=100×{1−(fluorescence polarization of test compound solution−average value of fluorescence polarization of positive control solution)/(average value of fluorescence polarization of negative control solution−average value of fluorescence polarization of positive control solution)} (Test Results and Discussion)
# Recombinant human GR, sequence (P04150 whole entry): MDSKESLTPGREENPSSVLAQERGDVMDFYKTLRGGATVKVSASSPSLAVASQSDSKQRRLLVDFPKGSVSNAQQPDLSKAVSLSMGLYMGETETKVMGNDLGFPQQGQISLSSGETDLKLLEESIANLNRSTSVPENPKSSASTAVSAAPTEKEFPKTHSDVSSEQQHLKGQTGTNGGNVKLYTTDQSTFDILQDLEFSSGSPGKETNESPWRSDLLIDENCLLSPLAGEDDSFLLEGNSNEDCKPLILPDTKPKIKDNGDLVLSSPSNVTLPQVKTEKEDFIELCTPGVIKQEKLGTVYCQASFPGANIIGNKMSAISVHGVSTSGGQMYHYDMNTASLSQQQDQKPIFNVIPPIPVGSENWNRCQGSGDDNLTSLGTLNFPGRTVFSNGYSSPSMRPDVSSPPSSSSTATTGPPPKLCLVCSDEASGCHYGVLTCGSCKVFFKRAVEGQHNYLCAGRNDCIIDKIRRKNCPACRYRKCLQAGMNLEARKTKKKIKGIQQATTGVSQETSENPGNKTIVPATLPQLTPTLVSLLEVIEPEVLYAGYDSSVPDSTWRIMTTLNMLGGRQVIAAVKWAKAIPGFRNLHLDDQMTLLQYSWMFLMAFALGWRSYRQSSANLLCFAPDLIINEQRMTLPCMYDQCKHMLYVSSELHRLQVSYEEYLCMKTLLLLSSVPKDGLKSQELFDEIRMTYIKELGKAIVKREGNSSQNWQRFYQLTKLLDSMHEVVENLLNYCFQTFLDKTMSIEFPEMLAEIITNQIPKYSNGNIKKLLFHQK
row,Structure (SMILES),GR binding rate (%)
1,"COc1cc(OCC(O)CO)ccc1-c1ccc2c(c1COc1cc(F)ccc1C)N(C)C(=O)C(C)(C)N2 (stereo not drawn) [Compound 4-1, 7-[4-(2,3-dihydroxypropyl)oxy-2-methoxyphenyl]-8-(5-fluoro-2-methylphenoxymethyl)-1,3,3-trimethyl-3,4-dihydro-1H-quinoxalin-2-one]",>99%

# Test system: IL-6 production in human corneal epithelium cell line (HCE-T)
# Test: IL-6 production inhibitory action evaluation test after LPS stimulation
# Type: cell-based
# Conditions: 4 hours, 100 μM test compound solution 10 μL/well, DEX treated group = 100
# Method: To evaluate the action of the present compounds as a GR agonist, IL-6 production inhibitory action in human corneal epithelial cell line after LPS stimulation was examined The IL-6 production was measured by using the HTRF method (Cat No. 62IL6PEB manufactured by Cisbio Bioassays, Inc.) according to the attached protocol. The specific method is described below.
# LPS solution: After dissolving LPS in PBS(−), the resulting solution was diluted with a culture solution, whereby an LPS solution with a 1 μg/mL concentration was prepared.
# After dissolving the test compound in dimethylsulfoxide, the solution was diluted with a 10% FBS-DMEM/Ham's F12 medium, whereby a 100 μM of the test compound solution was prepared. […] In addition, DEX was similarly dissolved, whereby a 100 μM concentration of the DEX solution was prepared, and an IL-6 production inhibitory ratio of DEX was measured, and used for calculation of Efficacy (% DEX).
# Used cells: human corneal epithelium cell line (HCE-T) (RIKEN, Institute of Physical and Chemical Research)
# The cells continued to subculture according to this method were used for the test.
# (Calculation of IL-6 Production Inhibitory Ratio)
# The IL-6 production inhibitory ratio (%) was calculated by the following formula. IL-6 production inhibitory ratio (%)=100×{1−(IL-6 produced amount of each test compound solution−average value of IL-6 produced amount of negative control group)/(average value of IL-6 produced amount of positive control group−average value of IL-6 produced amount of negative control group)}(%)
# Further, the IL-6 production inhibitory ratio (Efficacy (% DEX)) when the DEX treated group was made 100 was calculated. Efficacy (% DEX)=100×{(average value of IL-6 production inhibitory ratio of each test compound solution)/(average value of IL-6 production inhibitory ratio of DEX treated group)}(%)
# In addition, IC50 was calculated according to a conventional method. IDBS XLfit4 was used for the calculation.
row,Structure (SMILES),IL-6 production inhibitory ratio (% DEX)
1,"CC[C@@H](O)COc1ccc(-c2ccc3c(c2COc2cc(F)ccc2C)N(C)C(=O)C(C)(C)N3)c(OC)c1 [Compound 1-4, (R)-8-(5-fluoro-2-methylphenoxymethyl)-7-[4-(2-hydroxybutyl)oxy-2-methoxyphenyl]-1,3,3-trimethyl-3,4-dihydro-1H-quinoxalin-2-one]",92 % DEX
2,"COc1cc(OC[C@H](O)CC#N)ccc1-c1ccc2c(c1COc1cc(F)ccc1C)N(C)C(=O)C(C)(C)N2 [Compound 5-1, (R)-7-[4-(3-cyano-2-hydroxypropyl)oxy-2-methoxyphenyl]-8-(5-fluoro-2-methyl-phenoxymethyl)-1,3,3-trimethyl-3,4-dihydro-1H-quinoxalin-2-one]",98 % DEX
3,"COc1cc(OC[C@@H](O)CC#N)ccc1-c1ccc2c(c1COc1cc(F)ccc1C)N(C)C(=O)C(C)(C)N2 [Compound 5-2, (S)-7-[4-(3-cyano-2-hydroxypropyl)oxy-2-methoxyphenyl]-8-(5-fluoro-2-methyl-phenoxymethyl)-1,3,3-trimethyl-3,4-dihydro-1H-quinoxalin-2-one]",>99 % DEX
4,"COc1cc(OCC(O)CC(=O)OC(C)(C)C)ccc1-c1ccc2c(c1COc1cc(F)ccc1C)N(C)C(=O)C(C)(C)N2 (stereo not drawn) [Compound 7-2, 7-[4-(3-t-butoxycarbonyl-2-hydroxypropyl)oxy-2-methoxyphenyl]-8-(5-fluoro-2-methylphenoxymethyl)-1,3,3-trimethyl-3,4-dihydro-1H-quinoxalin-2-one]",>99 % DEX
5,"COc1ccc(O)cc1-c1ccc2c(c1COc1cc(F)ccc1C)N(C)C(=O)C(C)(C)N2 [Control compound C, 8-(5-fluoro-2-methylphenoxymethyl)-7-(5-hydroxy-2-methoxyphenyl)-1,3,3-trimethyl-3,4-dihydro-1H-quinoxalin-2-one, reference compound]",71 % DEX

# — patent US10435379B2, “[4-(1,3,3-trimethyl-2-OXO-3,4-dihydro-1H-quinoxalin-7-yl)phenoxy]ethyloxy compound or salt thereof” (SANTEN PHARMACEUTICAL CO., LTD., priority 2015, dated 2019)
